Legend:
[1] = system: 18:1 content; test: Fatty acid analysis of leaf 18:1 content (gas chromatography); format: in vivo, Arabidopsis
Source text: FIG. 6A-B depicts an abbreviated scheme for lipid biosynthesis and in plant oleic acid levels after 18:1 infiltrations. (A) De novo fatty acid (FA) synthesis occurs exclusively in the plastids of all plant cells and leads to the synthesis of palmitic acid (16:0)-acyl carrier protein (ACP) and oleic acid (18:1)-ACP. These FAs enter glycerolipid synthesis either via the prokaryotic pathway in the inner envelope of chloroplasts or are exported out of plastids as CoA thioesters to enter the eukaryotic glycerolipid synthesis pathway. Symbols for various components are: CoA, coenzyme A; Lyso-PA, acyl-G3P; PA, phosphatidic acid; PG, phosphatidylglycerol; MGDG, monogalactosyldiacylglycerol; DGDG, digalactosyldiacylglycerol; SL, sulfolipid; DAG, diacylglycerol; DHAP, dihydroxyacetone phosphate. (B) In planta oleic acid levels after 18:1 infiltrations. The HRT ssi2 sid2 leaves were infiltrated with water or 1 mM oleic acid and the fatty acid levels were determined 24 h post treatment from treated and untreated leaves. The 18:1 levels from the untreated wild type plant (HRT) were used as a control.
Fatty acid analysis and oleic acid infiltration. Fatty acid analysis was carried out using gas chromatorgraphy. Oleic acid (Sigma) was dissolved in water and injected into leaves using a needle-less syringe. […]

[2] = system: Turnip Crinkle Virus (TCV); test: TCV replication and systemic spread after 18:1 infiltration of leaves; format: in vivo, Arabidopsis
Source text: (A) RT-PCR analyses showing basal level expression of HRT in HRT ssi2 act1 and HRT ssi2 gly1 plants. The level of β-tubulin was used as an internal control to normalize the amount of cDNA template. The 18:1 levels are a mean of six independent replicates. (B) Systemic spread of TCV to uninoculated tissue in TCV-inoculated plants. RNA was extracted from the uninoculated tissues at 18 dpi and analyzed for the presence of the viral transcripts (TCV-U). Ethidium bromide staining of rRNA was used as a loading control. (C) Typical morphological phenotypes of mock-and TCV-inoculated HRT ssi2 act1 and HRT ssi2 gly1 plants. […] Plants were photographed at 8 dpi. (D) Effect of 18:1 infiltrations on viral replication in the inoculated leaf. Oleic acid (O, 1 mM) or water (W) was injected 24 h before or after (last two lanes) TCV inoculation and the samples were harvested 3 days post inoculation (dpi).
(§1) Pathogen inoculations. Transcripts synthesized in vitro from a cloned cDNA of TCV using T7 RNA polymerase were used for viral infections. For inoculations, the viral transcript was suspended at a concentration of 0.05 μg/μl in inoculation buffer, and the inoculation was performed. After viral inoculations, the plants were transferred to a Conviron MTR30 reach-in chamber maintained at 22° C., 65% relative humidity and 14 hour photoperiod. Inoculations with Pseudomonas syringae were conducted.
Fatty acid analysis and oleic acid infiltration. Fatty acid analysis was carried out using gas chromatorgraphy. Oleic acid (Sigma) was dissolved in water and injected into leaves using a needle-less syringe. To determine the 18:1 concentration required to elevate the leaf 18:1 content in ssi2 plants to wild-type levels, 50 μm to 10 mM were injected into ssi2 leaves followed by fatty acid profiling. A concentration of 500 μm to 1 mM was considered optimal, with similar results being obtained upon injection of either of these concentrations.
RNA extraction, RT-PCR and northern analyses. Small-scale extraction of RNA from one or two leaves was performed in the TRIzol reagent (Invitrogen, Gaihersburg, Md.) following the manufacturer's instructions. RNA quality and concentration were determined by gel electrophoresis and determination of A260. Northern blot analysis and synthesis of random primed probes for PR-1 were carried out. Reverse transcription (RT) and first strand cDNA synthesis was carried out using Superscript II (Invitrogen). Two-to-three independent RNA preparations were used for RT-PCR and each of these were analyzed at least twice by RT-PCR. The RT-PCR was carried out for 35 cycles in order to determine absolute levels of transcripts. The number of amplification cycles was reduced to 22-25 in order to evaluate and quantify any differences among transcript levels before they reached saturation. […]

[3] = system: Turnip Crinkle Virus (TCV); test: Visible HR formation to TCV in glycerol-treated plants; format: in vivo, Arabidopsis; settings: glycerol-treated wild-type, HRT sid2 and HRT pad4 plants; 3 dpi
Source text: (§2) (A) PR-1 gene expression and 18:1 content in water (W)- and glycerol (G)-treated plants. Ethidium bromide staining of rRNA was used as a loading control. The 18:1 levels are a mean of six independent replicates. (B) RT-PCR analyses showing expression of HRT and SSI4 genes in water- and glycerol-treated plants shown in A. The level of β-tubulin was used as an internal control to normalize the amount of cDNA template. (C) Visible HR formation in water (W)- and glycerol (G)-treated HRT sid2, HRT pad4 and HRT act1 plants at 3 dpi. (D) Percentage TCV resistant plants obtained after exogenous application of water, SA or glycerol. Wild type (HRT or hrt), HRT sid2, HRT pad4 and HRT act1 plants were inoculated 48 h post-treatment and resistance was analyzed 3-weeks post-inoculation. The number of plants tested are indicated above each bar. Asterisk indicates 100% susceptibility. (E) Systemic spread of TCV to uninoculated tissue in TCV-inoculated plants. RNA was extracted from the uninoculated tissues at 18 dpi and analyzed for the presence of the viral transcripts (TCV-U). Ethidium bromide staining of rRNA was used as a loading control. (F) Typical morphological phenotypes of TCV-inoculated plants that were sprayed either with water (W) or glycerol (G) prior to inoculation. Plants were photographed at 18 dpi.
Pathogen inoculations. […]

[4] = system: SA levels; test: SA levels after glycerol application; format: in vivo, Arabidopsis; settings: dependent on functional SID2 protein
Description: (§3) SA and glycerol treatments. SA and glycerol treatments were carried out by spraying 500 μM and 50 mM solutions, respectively, prepared in sterile water.
Exogenous application of glycerol confers resistance to TCV in an SA-independent but ACT1-dependent manner. Additional evidence supporting a role for 18:1 in regulating HRT gene expression was obtained by glycerol treatment of several genotypes. […] This is because the act1 plants are blocked in the step leading to the acylation of glycerol-3-phosphate with 18:1. […] Since the upregulation of HRT abolishes visible HR to TCV, the development of HR in various glycerol-treated plants was monitored. […] Thus, although the SA-mediated induction of HRT is dependent on PAD4, 18:1-mediated induction of HRT is independent of PAD4.

[5] = system: Turnip Crinkle Virus (TCV); test: TCV resistance after exogenous application of SA or glycerol; format: in vivo, Arabidopsis; settings: for resistance to TCV (percentage of resistant plants): inoculated 48 h post-treatment, analyzed 3 weeks post-inoculation
Source text: as §2, §1, §3

[6] = system: PR-1; test: PR-1 gene expression (northern analysis) in glycerol-treated plants; format: in vivo, Arabidopsis; settings: exogenous glycerol
Source text: as §2, with “Asterisk indicates 100% susceptibility. (E) Systemic spread of TCV to uninoculated tissue in TCV-inoculated plants.” left out, “Ethidium bromide staining of rRNA was used as a loading control. (F) Typical morphological phenotypes of TCV-inoculated plants that were sprayed either with water (W) or glycerol (G) prior to inoculation. Plants were photographed at 18 dpi.” left out
(§4) RNA extraction, RT-PCR and northern analyses. […] RNA quality and concentration were determined by gel electrophoresis and determination of A260. […] Two-to-three independent RNA preparations were used for RT-PCR and each of these were analyzed at least twice by RT-PCR. […] The number of amplification cycles was reduced to 22-25 in order to evaluate and quantify any differences among transcript levels before they reached saturation.

[7] = system: HRT; test: HRT transcript levels (RT-PCR) in glycerol-treated plants; format: in vivo, Arabidopsis; settings: exogenous glycerol
Source text: as §2, with “Asterisk indicates 100% susceptibility. (E) Systemic spread of TCV to uninoculated tissue in TCV-inoculated plants.” left out, “Ethidium bromide staining of rRNA was used as a loading control. (F) Typical morphological phenotypes of TCV-inoculated plants that were sprayed either with water (W) or glycerol (G) prior to inoculation. Plants were photographed at 18 dpi.” left out
as §4

[8] = system: Turnip Crinkle Virus (TCV); settings: exogenous SA prior to dark-treatment of Di-17 plants; cited from earlier work

| SMILES | 18:1 levels after exogenous application of 18:1 ([1]; HRT ssi2 sid2, site of infiltration vs untreated leaves, 24 h post treatment) | TCV replication in inoculated leaf ([2]; 18:1 infiltrated 24 h after TCV inoculation) | increase in amount of TCV transcript in inoculated leaf ([2]; HRT ssi2 sid2 leaves, 18:1 infiltrated before TCV inoculation) | systemic spread of the virus ([2]; HRT ssi2 sid2 plants, 18:1 injections) | TCV replication (TCV transcript) in the inoculated leaves ([2]; wild-type Di-17 or Col-0 leaves, 18:1 (1 mM) vs water injected 24 h before TCV inoculation, 3 dpi) | visible HR to TCV [3] | SA levels [4] | resistance to TCV (percentage of resistant plants) ([5]; Col-0 (hrt) plants) | resistance to TCV (percentage of resistant plants) ([5]; HRT act1 plants) | resistance to TCV (percentage of resistant plants) ([5]; HRT pad4 plants) | more TCV-resistant plants in comparison to SA pretreatment ([5]; HRT sid2 plants, glycerol vs SA pretreatment) [%] | resistance to TCV (percentage of resistant plants) ([5]; HRT sid2 plants) | PR-1 gene expression ([6]; HRT sid2 plants) | PR-1 gene expression ([6]; wild-type and HRT pad4 plants) | HRT transcript levels ([7]; HRT act1 plants) | HRT transcript levels ([7]; wild-type, HRT sid2 and HRT pad4 plants) | 18:1 content ([1]; exogenous glycerol (50 mM spray), wild-type, HRT sid2 and HRT pad4 plants) | dark-triggered susceptibility to TCV [8] |
| --- | --- | --- | --- | --- | --- | --- | --- | --- | --- | --- | --- | --- | --- | --- | --- | --- | --- | --- |
| CCCCCCCC/C=C\CCCCCCCC(=O)O [18:1, oleic acid] | only normalized 18:1 levels locally | remained unaffected | 6-8 fold | did not allow systemic spread of the virus | did not appear to alter TCV replication | – | – | – | – | – | – | – | – | – | – | – | – | – |
| OCC(O)CO [glycerol] | – | – | – | – | – | developed no visible HR | induced high levels of SA | not in HRT act1 or Col-0 plants | not in HRT act1 or Col-0 plants | significantly enhanced resistance | ~30 | enhanced resistance to TCV | failed to induce PR-1 gene expression | upregulation of PR-1 gene expression | not in HRT act1 | induced HRT transcript levels | lowered 18:1 content | – |
| O=C(O)c1ccccc1O [SA, Salicylic acid, reference compound] | – | – | – | – | – | – | – | – | substantial increase | only a marginal increase | – | – | – | – | – | – | – | prevents dark-triggered susceptibility |
